The test has as its system cultured rat pituitary cells. Put plainly: Stimulation of secretion of ACTH and β-endorphin by cultured rat pituitary cells (procedure of Endocrinology, 91, 562 (1972)). The class given is cell-based. To be noted: compared against synthetic oCRF, read-out: Half-maximal responses. The text has this: This synthetic peptide is examined for its effects on the secretion of ACTH and β-endorphin in vitro and also in vivo.

In the case of `CC[C@H](C)[C@H](NC(=O)[C@H](CC(=O)O)NC(=O)[C@H](CC(C)C)NC(=O)[C@H](CC(C)C)NC(=O)[C@H](CCCCN)NC(=O)[C@H](CCCNC(=N)N)NC(=O)[C@H](CC(N)=O)NC(=O)[C@H](CO)NC(=O)[C@H](Cc1c[nH]cn1)NC(=O)[C@H](C)NC(=O)[C@H](CCC(N)=O)NC(=O)[C@H](CCC(N)=O)NC(=O)[C@H](C)NC(=O)[C@H](CC(C)C)NC(=O)[C@H](CCC(N)=O)NC(=O)[C@H](CC(=O)O)NC(=O)[C@H](C)NC(=O)[C@H](CCCCN)NC(=O)[C@@H](NC(=O)[C@H](CCSC)NC(=O)[C@H](CCC(=O)O)NC(=O)[C@H](CC(C)C)NC(=O)[C@@H](NC(=O)[C@H](CCC(=O)O)NC(=O)[C@H](CCCNC(=N)N)NC(=O)[C@H](CC(C)C)NC(=O)[C@H](CC(C)C)NC(=O)[C@H](Cc1c[nH]cn1)NC(=O)[C@H](Cc1ccccc1)NC(=O)[C@@H](NC(=O)[C@H](CC(C)C)NC(=O)[C@H](CC(=O)O)NC(=O)[C@H](CC(C)C)NC(=O)[C@H](CO)NC(=O)[C@@H](NC(=O)[C@@H]1CCCN1C(=O)[C@@H]1CCCN1C(=O)[C@H](CCC(=O)O)NC(=O)[C@H](CCC(N)=O)NC(=O)[C@@H](N)CO)[C@@H](C)CC)[C@@H](C)O)C(C)C)[C@@H](C)O)C(=O)N[C@@H](C)C(N)=O` [oCRF], the EC50 is around 250 pM.

The values are drawn from patent publication EP0521963B1, “CRF ANALOGS” (THE SALK INSTITUTE FOR BIOLOGICAL STUDIES, priority 1990, dated 1998).
